# Laboratory results published in US12371454B2, “Cyclic peptide compound having Kras inhibitory action” (priority 2019, dated 2025).
# Starred links: 1 amine or outer side, 2 acyl side, 3 side chain; linkers in the order of their positions; H or OH if unused. Positions of bridges follow the written chain, without caps; N, C: chain ends. Non-standard residues stand in square brackets, D forms with d. Residues, ends and D or L forms follow the SMILES beside them. *: point of attachment. hPhe(3-Cl-4-CF3) = N[C@@H](CCc1ccc(C(F)(F)F)c(Cl)c1)C(=O)O; 3Oxa8azabicyclo(3.2.1)octane = C1CC2COCC1N2*; NMeAbu(4,4,4-F3) = CN[C@@H](CC(F)(F)F)C(=O)O; NMePhe(4-Me) = CN[C@@H](Cc1ccc(C)cc1)C(=O)O; NMePhe(4-F) = CN[C@@H](Cc1ccc(F)cc1)C(=O)O; NMedβ3hAla = C[C@H](CC(=O)[*:2])N(C)[*:1]; NMeGly(cPent) = CN[C@H](C(=O)O)C1CCCC1; NMeAla(cPr) = CN[C@@H](CC1CC1)C(=O)O; NMeGly(cBu) = CN[C@H](C(=O)O)C1CCC1; NMeCha = CN[C@@H](CC1CCCCC1)C(=O)O; NMeChg = CN[C@H](C(=O)O)C1CCCCC1; NMeF = CN[C@@H](Cc1ccccc1)C(=O)O; NMeI = CC[C@H](C)[C@H](NC)C(=O)O; NMeD = CN[C@@H](CC(=O)O)C(=O)O; NMeL = CN[C@@H](CC(C)C)C(=O)O; NMeV = CN[C@H](C(=O)O)C(C)C; NMeS = CN[C@@H](CO)C(=O)O; Iva = CC[C@](C)(N)C(=O)O; NMeA = CN[C@@H](C)C(=O)O; Piperidide = C1CCN(*)CC1; Ac5c = NC1(C(=O)O)CCCC1; Aze = O=C(O)[C@@H]1CCN1; Sar = CNCC(=O)O; Propyl = CCC*
# Experiments:
# [1] = target: T1, Kras and SOS1 (biotin-tagged human Kras loaded with GDP, His-tagged human SOS1) (Homo sapiens, UniProt P01116, G12D); test: Protein-protein interaction inhibition between Kras and SOS1 (KrasGl2D-SOS PPI) using AlphaScreen; format: binding; settings: AlphaScreen; biotin-tagged human Kras loaded with GDP, His-tagged human SOS1; read-out: KRAS G12D-SOS PPI IC50
# T1 construct: made in house; host or cells: E. coli (stated for Kras only)
# How it was run: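 Energy transfer from nickel-chelate donor beads bound to His-SOS1 to streptavidin acceptor beads bound to biotin-Kras, expressed in E. coli and loaded with GDP after purification, was monitored. Donors were excited at 680 nm; singlet oxygen reaching acceptors gave emission read at 520-620 nm.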
# [2] = system: Human pancreatic cancer cell line AsPC-1; test: Measurement of AsPC-1 cell growth inhibition (AsPC-1 CGI); format: cell-based; settings: 96 h
# How it was run: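 AsPC-1 cells in 15% FBS RPMI-1640 were exposed to test compound for 96 hours at 37° C, with CellTiter-Glo as endpoint.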
# T1 sequence (P01116 1-188 isoform P01116-2 G12D): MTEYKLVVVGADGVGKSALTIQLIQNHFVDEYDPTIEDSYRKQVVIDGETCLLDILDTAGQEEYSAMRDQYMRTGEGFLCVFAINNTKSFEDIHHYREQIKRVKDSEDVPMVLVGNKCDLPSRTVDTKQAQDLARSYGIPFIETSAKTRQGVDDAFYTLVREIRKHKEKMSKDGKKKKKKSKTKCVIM
SMILES,IC50 [1] [µM],IC50 [2] [µM]
CC[C@H](C)[C@@H]1NC(=O)[C@H](CC(C)C)N(C)C(=O)C[C@@H](C(=O)N(C)C)N(C)C(=O)[C@H](C2CCCC2)N(C)C(=O)C2(CCCC2)NC(=O)[C@H](Cc2ccc(F)cc2)N(C)C(=O)[C@H](CCc2ccc(C(F)(F)F)c(Cl)c2)NC(=O)CN(C)C(=O)[C@H](CC2CCCCC2)N(C)C(=O)[C@@H]2CCN2C(=O)[C@H](C)N(C)C1=O [Compound 920] ([NMeL]I[NMeA][Aze][NMeCha][Sar][hPhe(3-Cl-4-CF3)][NMePhe(4-F)][Ac5c][NMeGly(cPent)][NMeD]-NMe2; lactam N-11),0.015,0.1 to 0.5
CC[C@H](C)[C@@H]1NC(=O)[C@H](CC(C)C)N(C)C(=O)C[C@@H](C)N(C)C(=O)[C@H](C(C)C)N(C)C(=O)C2(CCCC2)NC(=O)[C@@H]2CCCN2C(=O)[C@H](CCc2ccc(C(F)(F)F)c(Cl)c2)NC(=O)CN(C)C(=O)[C@H](CC2CC2)N(C)C(=O)CN(C)C(=O)CN(C)C1=O [Compound 930] (cyclo([Ac5c][NMeV][NMedβ3hAla][NMeL]I[Sar][Sar][NMeAla(cPr)][Sar][hPhe(3-Cl-4-CF3)]P)),0.039,0.1 to 0.5
"CCCOC[C@H]1C(=O)N(C)CC(=O)N[C@@H](CCc2ccc(C(F)(F)F)c(Cl)c2)C(=O)N2CCC[C@H]2C(=O)NC2(CCCC2)C(=O)N(C)[C@@H](C2CCCCC2)C(=O)N(C)[C@H](C(=O)N2C3CCC2COC3)CC(=O)N(C)[C@@H](CC(F)(F)F)C(=O)N[C@@H]([C@@H](C)CC)C(=O)N(C)CC(=O)N(C)CC(=O)N1C [Compound 943] ([NMeAbu(4,4,4-F3)]I[Sar][Sar][NMeS](Propyl)[Sar][hPhe(3-Cl-4-CF3)]P[Ac5c][NMeChg][NMeD]-{3Oxa8azabicyclo(3.2.1)octane}; lactam N-11)",0.00083,0.1 to 0.5
CC[C@H](C)[C@@H]1NC(=O)[C@H](CC(C)C)N(C)C(=O)C[C@@H](C)N(C)C(=O)[C@H](C(C)C)N(C)C(=O)[C@](C)(CC)NC(=O)[C@@H]2CCCN2C(=O)[C@H](CCc2ccc(C(F)(F)F)c(Cl)c2)NC(=O)CN(C)C(=O)[C@H](CC2CCCCC2)N(C)C(=O)CN(C)C(=O)CN(C)C1=O [Compound 944] (cyclo(I[Sar][Sar][NMeCha][Sar][hPhe(3-Cl-4-CF3)]P[Iva][NMeV][NMedβ3hAla][NMeL])),0.018,0.1 to 0.5
CC[C@H](C)[C@@H]1NC(=O)[C@H](C2CCC2)N(C)C(=O)C[C@@H](C(=O)N2CCCCC2)N(C)C(=O)[C@H](C(C)C)N(C)C(=O)C2(CCCC2)NC(=O)[C@@H]2CCCN2C(=O)[C@H](CCc2ccc(C(F)(F)F)c(Cl)c2)NC(=O)CN(C)C(=O)[C@H](CC2CCCCC2)N(C)C(=O)CN(C)C(=O)CN(C)C1=O [Compound 948] ([NMeGly(cBu)]I[Sar][Sar][NMeCha][Sar][hPhe(3-Cl-4-CF3)]P[Ac5c][NMeV][NMeD]-Piperidide; lactam N-11),0.0031,0.05 to 0.1
CC[C@H](C)[C@@H]1NC(=O)[C@H](CC(C)C)N(C)C(=O)C[C@@H](C(=O)N(C)C)N(C)C(=O)[C@H]([C@@H](C)CC)N(C)C(=O)C2(CCCC2)NC(=O)[C@H](C)NC(=O)[C@H](CCc2ccc(C(F)(F)F)c(Cl)c2)NC(=O)CN(C)C(=O)[C@H](Cc2ccc(C)cc2)N(C)C(=O)[C@@H]2CCN2C(=O)[C@H](C)N(C)C1=O [Compound 957] ([NMeL]I[NMeA][Aze][NMePhe(4-Me)][Sar][hPhe(3-Cl-4-CF3)]A[Ac5c][NMeI][NMeD]-NMe2; lactam N-11),0.00044,0.1 to 0.5
CC[C@H](C)[C@@H]1NC(=O)[C@H](CC(C)C)N(C)C(=O)C[C@@H](C(=O)N(C)C)N(C)C(=O)[C@H]([C@@H](C)CC)N(C)C(=O)C2(CCCC2)NC(=O)[C@H](Cc2ccccc2)N(C)C(=O)[C@H](CCc2ccc(C(F)(F)F)c(Cl)c2)NC(=O)CN(C)C(=O)[C@H](Cc2ccc(C)cc2)N(C)C(=O)[C@@H]2CCN2C(=O)[C@H](C)N(C)C1=O [Compound 958] ([NMeL]I[NMeA][Aze][NMePhe(4-Me)][Sar][hPhe(3-Cl-4-CF3)][NMeF][Ac5c][NMeI][NMeD]-NMe2; lactam N-11),0.0021,0.02 to 0.05
